In PubChem BioAssay AID1996:
Values after ≈ are worked out from the molar mass of the structure shown.

Settings: buffer; pH 7.4; 200.0 µM

| SMILES | solubility kinetic [µg/mL] |
| --- | --- |
| CSc1nsc(SCC(=O)Nc2ccc(OC(C)=O)cc2)n1 | 2.8 (≈ 7.88 µM) |
| CC1(C)c2ccccc2N(CC(N)=O)C12C=Cc1ccccc1O2 (stereo not given) | 12.6 (≈ 39.3 µM) |
| CCN(CC)C(=O)c1cc(Cl)ccc1NC(=O)c1ccco1 | > 48.1 |
| COc1cccc(C(=O)N2CCN(C(=O)C3CC3)CC2)c1 | 40.7 (≈ 141 µM) |
| Cc1cc(C(=O)Nc2ccccc2C)on1 | > 32.4 |
| CC1CCc2sc(C(=O)NCc3ccccn3)cc2C1 (stereo not given) | 13 (≈ 45.4 µM) |
| O=C(COC(=O)Cc1ccc(Br)cc1)NCC1CCCO1 (stereo not given) | > 53.4 |
| Cc1cccc(NC(=O)Nc2cccc3ccccc23)c1 | < 0.3 |
| COc1ccccc1-n1c(C)c(C(C)=O)c2cc(O)ccc21 | 3 (≈ 10.2 µM) |
| COC(=O)c1ccc(NC(=O)CSc2nc3ncccc3[nH]2)cc1 | 3.5 (≈ 10.2 µM) |
| COc1cccc(C(C)NC(=O)C2CCCO2)c1 (stereo not given) | 36.1 (≈ 145 µM) |
| COC(=O)Cc1c(O)ccn(Cc2ccc(OC)c(OC)c2)c1=O | > 50 |
| Cc1onc(-c2c(Cl)cccc2Cl)c1C(=O)c1ccccc1 | 5.1 (≈ 15.4 µM) |
| O=C(C1=C(O)C(=O)N(CC2CCCO2)C1c1ccccc1)c1ccco1 (stereo not given) | 41.8 (≈ 118 µM) |
| C=CCn1c(O)c(C(C)=Nc2cccc(C(=O)O)c2)c(=O)[nH]c1=O | > 49.4 |
| Cc1ccc2nc(/N=C(\N)NC(=O)NC3CCCCC3)nc(C)c2c1 | 8 (≈ 23.5 µM) |
| CC1(C)C(=O)Nc2ccccc2N1C(=O)CSc1ncccn1 | > 49.3 |
| CCCS(=O)(=O)Nc1ccc(-c2cn3c(n2)SCC3)cc1 | 44.5 (≈ 138 µM) |
| COc1ccc(CC2CC(=O)N(c3ccc(C)cc3)C2=O)cc1 (stereo not given) | 4.4 (≈ 14.2 µM) |
| c1ccc(-n2cnc3cc(NCc4ccco4)ccc32)cc1 | 35.5 (≈ 123 µM) |
| CC(C)N(CCc1ccncc1)C(=S)Nc1cccc(Cl)c1 | 43.2 (≈ 129 µM) |
| NC(=O)c1ccsc1NC(=O)COC(=O)c1ccccn1 | > 45.8 |
| O=C(NC1CCCCCC1)c1ccco1 | > 31.1 |
| CN(Cc1cccc(F)c1)C(=O)c1cc(=O)[nH]c2ccccc12 | 44.3 (≈ 143 µM) |

| SMILES | solubility kinetic [µg/mL] |
| --- | --- |
| COc1cc2ccccc2cc1C(=O)N1CCc2ccccc21 | 1.9 (≈ 6.26 µM) |
| COc1ccc(CNC(=O)C2CCN(C(=O)Cc3ccccc3)CC2)cc1 | > 55 |
| COc1ccc(C(=O)NCC(=O)N/N=C(\C)c2ccco2)cc1OC | > 51.8 |
| Cc1cccc(N2CCN(S(=O)(=O)c3ccc(Cl)nc3)CC2C)c1 (stereo not given) | 3.6 (≈ 9.84 µM) |
| NC(=O)c1ccc(Oc2ccc3c(c2)CCC3)c([N+](=O)[O-])c1 | 5.4 (≈ 18.1 µM) |
| COc1ccccc1CNC(=O)c1cc(C(=O)CC(C)C)c[nH]1 | 1.6 (≈ 5.09 µM) |
| CC1CCN(C(=O)COC(=O)c2ccccc2C(=O)c2ccccc2)CC1 | > 54.8 |
| CC(=O)N1CCOCCOCCN(C(C)=O)CCOCC1 | > 45.4 |
| CC1CCCCC1NC1=NCCCS1 (stereo not given) | > 31.9 |
| Cc1ccc(-c2nc(-c3cccnc3)sc2CC(=O)O)cc1 | 42.4 (≈ 137 µM) |
| CC(=O)N1CCN(C(=O)c2cc(C)oc2C)CC1 | > 37.5 |
| O=c1[nH]c2ccc(S(=O)(=O)NCc3ccccc3)cc2[nH]1 | 22.5 (≈ 74.2 µM) |
| COc1ccccc1OCC(=O)Nc1ccc(S(=O)(=O)N(C)c2ccccc2)cc1 | 2.4 (≈ 5.63 µM) |
| O=C(NCCc1ccccc1F)c1cccc2cccnc12 | 31.4 (≈ 107 µM) |
| O=C1NC(c2ccc(Br)cc2)Nc2ccccc21 (stereo not given) | 9 (≈ 29.7 µM) |
| CCCCNC(=O)C1CCN(S(=O)(=O)N2CCOCC2)CC1 | > 50 |
| COc1ccc(NS(=O)(=O)c2cccc(C(=O)NCC(c3cccs3)N3CCOCC3)c2)cc1 (stereo not given) | 71.3 (≈ 142 µM) |
| CC1(C)Cc2c(C#N)c(N3CCNCC3)nc(-c3ccco3)c2CS1 | 21.5 (≈ 60.7 µM) |
| CC#CC[N+](C)(C)CCCCCCCC.[Br-] | > 43.5 |
| O=C(NCCc1ccc(Cl)cc1)c1ccc2ccccc2n1 | 5.9 (≈ 19 µM) |
| O=C(c1ccc(F)cc1)C1CCN(C(=O)c2ccc(F)cc2)CC1 | > 49.4 |
| Cc1cccc(NC(=O)NC2CCCCCCC2)c1C | 0.6 (≈ 2.19 µM) |
| COc1ccccc1/C=C/c1ccc2cccc(O)c2n1 | 11.2 (≈ 40.4 µM) |
| C/C(=N/NC(=O)CNC(=O)c1cccnc1)c1ccccc1 | > 44.4 |

| SMILES | solubility kinetic [µg/mL] |
| --- | --- |
| O=C(NC1CC1)c1c(O)c2ccccc2[nH]c1=O | 2.8 (≈ 11.5 µM) |
| Cc1cnc(NC(=O)C2CCC(C(C)(C)C)CC2)s1 (stereo not given) | < 0.3 |
| Cc1ccc(NC(=O)COC(=O)C2CCC2)cc1S(=O)(=O)N1CCOCC1 | > 59.5 |
| COC(=O)CSc1[nH]c2cc(C)ccc2c1[N+](=O)[O-] | > 42 |
| CCOC(=O)C1CCN(S(=O)(=O)c2ccc(Cl)s2)CC1 | 12.3 (≈ 36.4 µM) |
| CC1CN(C2=N/C(=C/c3ccc4c(c3)OCO4)C(=O)N2)CC(C)O1 (stereo not given) | 24.7 (≈ 75 µM) |
| Cc1[nH]c2ccccc2c1CCNC(=O)c1c(N)no[n+]1[O-] | 31.3 (≈ 104 µM) |
| O=c1cc(-c2ccc([N+](=O)[O-])cc2)c2cc3c(cc2[nH]1)OCCO3 | 0.9 (≈ 2.78 µM) |
| NC(=O)c1ccccc1N | > 20.4 |
| CS(=O)(=O)c1ccc(NS(=O)(=O)c2ccc(Cl)c(C(=O)NC3=NCCS3)c2)cc1 | 24 (≈ 50.6 µM) |
| CCOC(=O)C(C)Oc1ccc(NC(=O)C(Cl)(Cl)Cl)cc1 (stereo not given) | 51.1 (≈ 144 µM) |
| Cc1cc(C)cc(C(=O)NCc2ccc3c(c2)OCO3)c1 | 5.8 (≈ 20.5 µM) |
| CC(C)(C)c1ccc(OCCCN2CCCC2)cc1 | 28.6 (≈ 109 µM) |
| CC(OC(=O)C1=COCCO1)C(=O)NC1CCCCC1C (stereo not given) | > 44.6 |
| CNC(=O)c1cc(C(=O)c2ccccc2Br)c[nH]1 | > 46.1 |
| CN(Cc1cccc(Cl)c1Cl)C(=O)c1cc(S(=O)(=O)N2CCOCC2)ccc1F | 5.2 (≈ 11.3 µM) |
| C=CCn1c(C(C)(C)C)nc2ccccc21 | 24.6 (≈ 115 µM) |
| O=C1CN(C(=O)/C=C/c2ccc(Br)cc2)CCN1 | 41.8 (≈ 135 µM) |
| CC(C)Cc1ccc(S(=O)(=O)Nc2ccc3[nH]c(=O)[nH]c3c2)cc1 | 1.1 (≈ 3.18 µM) |
| NC(=O)C[C@H](NC(=O)c1ccc(Cl)cc1)C(=O)OCc1ccccc1 | > 54.1 |
| O=C(NC1CCCC1)C1CCN(S(=O)(=O)c2ccccc2)CC1 | 44.2 (≈ 131 µM) |
| Fc1cc(F)c(NC(=S)N2CCOCC2)c(F)c1 | > 41.4 |
| O=C(Nc1ccc(F)cc1)N1CCCN(c2nccc(C(F)(F)F)n2)CC1 | 57 (≈ 149 µM) |
| Clc1cccc(C2Nc3cccc4cccc(c34)N2)c1 | 5.3 (≈ 18.9 µM) |

| SMILES | solubility kinetic [µg/mL] |
| --- | --- |
| Cc1ccc(CNC(=O)C2CC(=O)N(C3CCCCCC3)C2)cc1 (stereo not given) | 48.8 (≈ 149 µM) |
| Cc1ccc2cccc(NS(=O)(=O)c3ccccc3)c2n1 | < 0.3 |
| Cc1noc(C)c1CSc1ccccc1C(=O)O | > 39.5 |
| CNCCCN1c2ccccc2CCc2ccccc21.Cl | > 45.4 |
| COC(=O)c1cc(=O)n(-c2c(Cl)cc(C(F)(F)F)cc2Cl)[nH]1 | > 53.3 |
| O=C(c1ccc(-n2cccc2)cc1)N1CCCCC1 | > 38.1 |
| COC(=O)c1c(NC(=O)c2ccc(C)cc2)csc1C | < 0.6 |
| COc1ccc(CCNC(=O)c2cc3c(C)nccc3[nH]c2=O)cc1OC | 17.1 (≈ 46.5 µM) |
| COc1ccc(Cc2c(O)nc(SCC(C)C)[nH]c2=O)cc1 | 47.2 (≈ 147 µM) |
| COc1ccc(OC)c([C@@H](O)[C@H](C)NC(C)(C)C)c1.Cl | > 45.6 |
| O=C(CN1C(=O)NC2(CCCCC2)C1=O)NCCc1ccccc1 | > 49.4 |
| COc1cc(C(=O)O)nc(OC)n1 | > 27.6 |
| Cc1ccc(-n2c(O)c(C=NCc3ccco3)c(=O)[nH]c2=S)cc1C | 11.1 (≈ 31.2 µM) |
| CCOC(=O)Cc1csc(NC(=O)Nc2cccc(OC)c2)n1 | 5.8 (≈ 17.3 µM) |
| CN(C)CCC(=O)c1ccc(F)cc1.Cl | > 34.8 |
| CCOC(=O)c1[nH]c(C)c(C(=O)OC)c1C | > 33.8 |
| O=C(NCCCc1nc2ccccc2[nH]1)c1ccco1 | > 40.4 |
| CCOc1ccc(-c2nc(N)ncc2-c2ccccc2OC)c(O)c1 | 1.3 (≈ 3.85 µM) |
| CCN(c1ccccc1)S(=O)(=O)c1csc(C(N)=O)c1 | 44.3 (≈ 143 µM) |
| O=C(COC(=O)c1cccnc1Cl)NC1CCCCC1 | > 44.5 |
| O=C(COC(=O)/C=C/c1ccccc1[N+](=O)[O-])Nc1ccc2[nH]c(=O)[nH]c2c1 | 10 (≈ 26.2 µM) |
| O=C(Nc1ncc([N+](=O)[O-])s1)C1COc2ccccc2O1 (stereo not given) | > 46.1 |
| O=C(Nc1cccc(S(=O)(=O)N2CCOCC2)c1)C1CC1 | > 46.6 |
| CCOc1cc(C(=O)OCc2cc(=O)n3c(C)csc3n2)ccc1OC | 3.1 (≈ 8.28 µM) |

| SMILES | solubility kinetic [µg/mL] |
| --- | --- |
| COc1ccc(CCNCc2ccsc2)cc1OC | 37.1 (≈ 134 µM) |
| O=C(COC(=O)c1cnccn1)c1cccc([N+](=O)[O-])c1 | > 43.1 |
| O=C1CSC(=Nc2ccc(Cl)cc2)N1Cc1cccnc1 | 8.3 (≈ 26.1 µM) |
| O=C(Nc1ccc(Cl)cc1Cl)c1ccc2ncsc2c1 | 0.4 (≈ 1.24 µM) |
| COC(=O)c1sc(NC(=O)c2c(C)noc2C)nc1C | > 44.3 |
| CCOC(=O)COn1c(=O)c(-c2ccc(F)cc2)[n+]([O-])c2ccccc21 | 3.8 (≈ 10.6 µM) |
| Cn1cc(C(=O)Nc2ccc(C#N)cc2)c2ccccc2c1=O | < 0.2 |
| Cc1cc(C)c(OCCCn2ccnc2)c(C)c1 | 27.2 (≈ 111 µM) |
| CCN(CCS(=O)(=O)c1ccc(Cl)cc1)Cc1nc2ccccc2c(=O)[nH]1 | > 60.9 |
| Cl.N=c1sccn1CC(=O)Nc1ccc(Cl)cc1[N+](=O)[O-] | 44.4 |
| COC(=O)c1ccc(NC(=O)c2cc(Cl)ccc2OC)cc1 | < 0.7 |
| COc1ccc(OCC(=O)Nc2ccncc2)cc1 | > 38.7 |
| Cc1cccc(N2CCN(C(=S)NC3CCCCC3)CC2)c1C | < 0.2 |
| Brc1ccccc1OCCN1CCCC1 | 32 (≈ 118 µM) |
| Cc1ccsc1C(=O)NNC(=S)NC1CCCCC1 | > 44.6 |
| CC(OC(=O)CCc1nc2ccccc2[nH]c1=O)c1ccccc1 (stereo not given) | 11.9 (≈ 36.9 µM) |
| N/C(=N/S(=O)(=O)c1ccccc1)c1cccc([N+](=O)[O-])c1 | > 45.8 |
| O=C1C2CCCN2C(=S)N1C1CCCCC1 (stereo not given) | > 35.8 |
| CC1CN=C(Nc2ccc(F)cc2)S1 (stereo not given) | > 31.5 |
| COc1ccc(Cl)cc1NC(=O)CN1CCCCCC1 | 2.1 (≈ 7.08 µM) |
| O=C(Nc1ccccc1)C1CCOC1=O (stereo not given) | 26.3 (≈ 128 µM) |
| COc1cc(C(=O)Nc2nc3ccccc3[nH]2)ccc1OC(F)F | 1 (≈ 3 µM) |
| O=C(C1CCCO1)N(c1ccc(F)cc1)C1C=CS(=O)(=O)C1 (stereo not given) | > 48.8 |
| COc1ccccc1NC(=O)/C=C1\NC(=O)CS1 | > 39.6 |
